Measurements from patent US20230086702A1, “SUBSTITUTED 2-AMINO-PYRAZOLYL-[1,2,4]TRIAZOLO[1,5A]PYRIDINE DERIVATIVES AND USE THEREOF” (The Johns Hopkins University, priority 2019, published 2023).

How the values were obtained:
[1] = target: T1, DLK (Homo sapiens, UniProt Q12852); assay: DLK biochemical assay (TR-FRET, MKK7 phosphorylation); conditions: DLK catalytic domain, MKK7 substrate, 60 μM ATP
T1 construct: 10 nM DLK, catalytic domain, Carna Biosiences; purchased Carna Biosciences ('Carna Biosiences' [sic])
T1 sequence (Q12852 125-366 limits assumed): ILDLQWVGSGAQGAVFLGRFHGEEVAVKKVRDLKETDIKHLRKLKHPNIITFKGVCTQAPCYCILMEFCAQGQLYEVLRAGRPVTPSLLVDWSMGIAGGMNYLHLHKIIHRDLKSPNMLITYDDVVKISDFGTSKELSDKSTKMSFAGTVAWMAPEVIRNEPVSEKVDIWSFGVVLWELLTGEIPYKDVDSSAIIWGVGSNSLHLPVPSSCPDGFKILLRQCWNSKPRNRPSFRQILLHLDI
Procedure, shortened: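 TR-FRET read-out (ratio of 665 nm acceptor to Eu donor channel) tracks MKK7 T275/S277 phosphorylation by DLK, using Eu-labelled anti-phospho-MKK7 and XL665-labelled anti-His on His-MKK7. Reactions were stopped and detected in pH 7.5 Tris buffer containing 100 mM EDTA, 100 mM NaCl, 200 mM KF and 0.01% Tween 20.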

[2] = target: T2, LZK (Homo sapiens, UniProt O43283); assay: LZK biochemical assay (TR-FRET, MKK7 phosphorylation); conditions: LZK catalytic domain, MKK7 substrate, 15 μM ATP
T2 construct: 10 nM LZK, catalytic domain, Carna Biosiences in assay buffer; purchased Carna Biosciences ('Carna Biosiences' [sic])
T2 sequence (O43283 168-409 limits assumed): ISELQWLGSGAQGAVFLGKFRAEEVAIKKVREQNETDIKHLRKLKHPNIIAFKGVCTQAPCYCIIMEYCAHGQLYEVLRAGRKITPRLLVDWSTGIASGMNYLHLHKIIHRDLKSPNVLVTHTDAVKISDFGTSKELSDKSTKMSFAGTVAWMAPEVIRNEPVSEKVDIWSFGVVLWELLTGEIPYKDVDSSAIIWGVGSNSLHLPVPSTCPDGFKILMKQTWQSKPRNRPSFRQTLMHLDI

Row | Compound | IC50 [1] | IC50 [2]
1 | CCC(c1ccc(OCC(F)(F)F)nc1)n1cc(-c2cc(C(=O)N[C@@H](C)CC)n3nc(N)nc3c2)cn1 (mixture of isomers) [Example I-113, 2-Amino-N-[(2S)-butan-2-yl]-7-(1-{1-[6-(2,2,2-trifluoroethoxy)pyridin-3-yl]propyl}-1H-pyrazol-4-yl)[1,2,4]triazolo[1,5-a]pyridine-5-carboxamide] | 5.4 nM | 12 nM
2 | CC[C@H](C)NC(=O)c1cc(-c2cnn(C(c3ccccc3)C(C)(C)C)c2)cn2nc(N)nc12 (single isomer, unassigned) [Example I-35] | 410 nM | 990 nM
3 | Nc1nc2cc(-c3cnn(C(c4ccc(C(F)(F)F)nc4)C4CCOCC4)c3)cc(C(=O)N[C@H]3CCOC3)n2n1 (single isomer, unassigned) [Example I-184] | 13 nM | 22 nM
4 | CC(C)(CO)NC(=O)c1cc(-c2cnn(C(c3ccc(C(F)(F)F)nc3)C3CCOCC3)c2)cn2nc(N)nc12 (single isomer, unassigned) [Example I-168, 2-Amino-N-(1-hydroxy-2-methylpropan-2-yl)-6-(1-{tetrahydro-2H-pyran-4-yl[6-(trifluoromethyl)pyridin-3-yl]methyl}-1H-pyrazol-4-yl)[1,2,4]triazolo[1,5-a]pyridine-8-carboxamide] | 1.5 nM | 8.9 nM
5 | CC[C@H](C)NC(=O)c1cc(-c2cnn([C@H](c3ccccc3)C(C)C)c2)cc2nc(N)nn12 (single isomer, unassigned) [Example I-26] | 1.1 nM | 18 nM
6 | CCC(c1ccc(C(F)(F)F)nc1)n1cc(-c2cc(C(=O)N[C@H]3CCOC3)n3nc(N)nc3c2)cn1 (single isomer, unassigned) [Example I-178] | 17 nM | 64 nM
7 | CC[C@H](C)NC(=O)c1cc(-c2cnn(C(c3ccccc3)C3CCOCC3)c2)cc2nc(N)nn12 (single isomer, unassigned) [Example I-52] | 0.7 nM | 5.6 nM
8 | CC[C@H](C)NC(=O)c1cc(-c2cnn(CC3CC3)c2)cn2nc(N)nc12 [Example I-1] | 97 nM | 83 nM
9 | CC[C@H](C)NC(=O)c1cc(-c2cnn(C(c3ccccc3)C3CCOCC3)c2)cc2nc(N)nn12 (single isomer, unassigned) [Example I-53] | 11 nM | 24 nM
10 | CCC(c1ccc(N2CCOCC2)cc1)n1cc(-c2cc(C(=O)N[C@@H](C)CC)c3nc(N)nn3c2)cn1 (single isomer, unassigned) [Example I-48] | 25 nM | 120 nM
11 | CCC(c1ccc(C(F)(F)F)nc1)n1cc(-c2cc(C(=O)N[C@@H](C)CO)c3nc(N)nn3c2)cn1 (single isomer, unassigned) [Example I-152] | 0.7 nM | 3.9 nM
12 | CC[C@@H](c1ccc(F)cc1)n1cc(-c2cc(C(=O)NC(C)CF)n3nc(N)nc3c2)cn1 (single isomer, unassigned) [Example I-149, 2-Amino-7-{1-[(15)-1-(4-fluorophenyl)propyl]-1H-pyrazol-4-yl}-N-(1-fluoropropan-2-yl)[1,2,4]triazolo[1,5-a]pyridine-5-carboxamide] | 1.7 nM | 13 nM
13 | CC[C@H](C)NC(=O)c1cc(-c2cnn(C3CCC(F)(F)CC3)c2)cn2nc(N)nc12 [Example I-3] | 66 nM | 12 nM
14 | CC[C@H](C)NC(=O)c1cc(-c2cnn(C(c3c(F)cncc3F)C(C)C)c2)cc2nc(N)nn12 (single isomer, unassigned) [Example I-125] | 5.4 nM | 66 nM
15 | CC[C@H](C)NC(=O)c1cc(-c2cnn(C3CN(Cc4ccccc4)C3)c2)cn2nc(N)nc12 [Example I-5] | 55 nM | 15 nM
16 | CCC(c1ccc(F)cn1)n1cc(-c2cc(C(=O)N[C@@H](C)CC)c3nc(N)nn3c2)cn1 (single isomer, unassigned) [Example I-56] | 2.7 nM | 19 nM

Row | Compound | IC50 [1] | IC50 [2]
17 | CC[C@H](C)NC(=O)c1cc(-c2cnn(C3CCOc4ccccc43)c2)cc2nc(N)nn12 (single isomer, unassigned) [Example I-17] | 22 nM | 4.7 nM
18 | CC[C@H](C)NC(=O)c1cc(-c2cnn(C(c3ccccc3)C3CCOCC3)c2)cc2nc(N)nn12 (mixture of isomers) [Example I-51, 2-Amino-N-[(2S)-butan-2-yl]-7-{1-[phenyl(tetrahydro-2H-pyran-4-yl)methyl]-1H-pyrazol-4-yl}[1,2,4]triazolo[1,5-a]pyridine-5-carboxamide] | 1.8 nM | 8.7 nM
19 | CCC(c1ccc(Cl)s1)n1cc(-c2cc(C(=O)N[C@@H](C)CC)c3nc(N)nn3c2)cn1 (single isomer, unassigned) [Example I-131] | 1.5 nM | 33 nM
20 | CC[C@H](C)NC(=O)c1cc(-c2cnn(C(c3ccnc(OC)c3)C(C)C)c2)cc2nc(N)nn12 (single isomer, unassigned) [Example I-127] | 17 nM | 52 nM
21 | CC(CF)NC(=O)c1cc(-c2cnn(C(c3ccccc3)C(C)C)c2)cn2nc(N)nc12 (single isomer, unassigned) [Example I-141, 2-Amino-N-(1-fluoropropan-2-yl)-6-[1-(2-methyl-1-phenylpropyl)-1H-pyrazol-4-yl][1,2,4]triazolo[1,5-a]pyridine-8-carboxamide] | 26 nM | 355 nM
22 | CC[C@H](C)NC(=O)c1cc(-c2cnn(C(c3ccc(C(F)F)nc3)C3CC3)c2)cc2nc(N)nn12 (single isomer, unassigned) [Example I-99] | 31 nM | 14 nM
23 | CC[C@H](C)NC(=O)c1cc(-c2cnn(C(c3ccccc3)C(C)C)c2)cc2nc(N)nn12 (mixture of isomers) [Example I-24, 2-Amino-N-[(2S)-butan-2-yl]-7-{1-[2-methyl-1-phenylpropyl]-1H-pyrazol-4-yl}[1,2,4]triazolo[1,5-a]pyridine-5-carboxamide] | 2.7 nM | 23 nM
24 | tert-Butyl 4-{(4-{2-amino-8-[(2S)-butan-2-ylcarbamoyl][1,2,4]triazolo[1,5-a]pyridin-6-yl}-1H-pyrazol-1-yl)[6-(trifluoromethyl)pyridin-3-yl]methyl}piperidine-1-carboxylate [Example I-80] | 45 nM | 40 nM
25 | CC[C@H](C)NC(=O)c1cc(-c2cnn(C3CCc4ccccc43)c2)cn2nc(N)nc12 (mixture of isomers) [Example I-13, 2-Amino-N-[(2S)-butan-2-yl]-6-[1-(2,3-dihydro-1H-inden-1-yl)-1H-pyrazol-4-yl][1,2,4]triazolo[1,5-a]pyridine-8-carboxamide] | 68 nM | 7.7 nM
26 | CC[C@H](C)NC(=O)c1cc(-c2cnn(C(c3ccc(C(F)(F)F)nc3)C3CCOCC3)c2)cn2nc(N)nc12 (mixture of isomers) [Example I-76, 2-Amino-N-[(2S)-butan-2-yl]-6-(1-{tetrahydro-2H-pyran-4-yl[6-(trifluoromethyl)pyridin-3-yl]methyl}-1H-pyrazol-4-yl)[1,2,4]triazolo[1,5-a]pyridine-8-carboxamide] | 0.5 nM | 1.1 nM
27 | CC[C@H](C)NC(=O)c1cc(-c2cnn([C@@H](CC)c3ccc(C(F)(F)F)nc3)c2)cn2nc(N)nc12 (single isomer, unassigned) [Example I-71] | 1.4 nM | 4.5 nM
28 | CC[C@H](C)NC(=O)c1cc(-c2cnn(C(c3ccc(C(F)F)nc3)C(C)C)c2)cn2nc(N)nc12 (mixture of isomers) [Example I-67, 2-Amino-N-[(2S)-butan-2-yl]-6-(1-{1-[6-(difluoromethyl)pyridin-3-yl]-2-methylpropyl}-1H-pyrazol-4-yl)[1,2,4]triazolo[1,5-a]pyridine-8-carboxamide] | 1.1 nM | 5.6 nM
29 | CC[C@H](C)NC(=O)c1cc(-c2cnn(C3CCOc4ccccc43)c2)cc2nc(N)nn12 (single isomer, unassigned) [Example I-18] | 47 nM | 6 nM
30 | CC[C@H](C)NC(=O)c1cc(-c2cnn(C(c3ccccc3)C3(C)CC3)c2)cn2nc(N)nc12 (single isomer, unassigned) [Example I-29] | 2.3 nM | 170 nM
31 | CC(C)C(c1ccc(C(F)(F)F)nc1)n1cc(-c2cc(C(=O)N[C@H]3CCOC3)n3nc(N)nc3c2)cn1 (single isomer, unassigned) [Example I-181] | 2.1 nM | 14 nM
32 | CC[C@H](C)NC(=O)c1cc(-c2cnn(C(c3ccc(F)cc3)C(C)C)c2)cn2nc(N)nc12 (mixture of isomers) [Example I-43, 2-Amino-N-[(2S)-butan-2-yl]-6-{1-[1-(4-fluorophenyl)-2-methylpropyl]-1H-pyrazol-4-yl}[1,2,4]triazolo[1,5-a]pyridine-8-carboxamide] | 2.9 nM | 66 nM
